Results on 8 compounds are retold here after paper PMC5905287, “Synthesis and in vitro biochemical evaluation of oxime bond-linked daunorubicin–GnRH-III conjugates developed for targeted drug delivery” (Beilstein Journal of Organic Chemistry, 2018).

The subject of data set [1] is MCF-7 human breast cancer cell line. The data set is described as follows: In vitro cytostatic effect, alamarBlue assay, MCF-7. The class given is cell-based. Particulars: MCF-7, 10 µM. The source says:
(§1) Cell lines often function as the first model system of choice to study biological processes or to test the efficiency of drugs or drug conjugates and their cytotoxic effects. Immortal cell lines offer various benefits, for instance they are easy to handle, cost-effective and provide consistent sample and reproducible results. Nevertheless, cell lines also present the disadvantage that after a period of continuous growth, cell characteristics can change and dedifferentiate in culture. The serial passaging can cause genotypic and phenotypic variations and the state of confluency can also affect gene expression pattern in some cell lines. Due to this, the usage of internal standards during the evaluation of new potential candidates might be necessary to ensure comparability with previous results. The cytostatic effect of the novel GnRH-III bioconjugates was determined on HT-29 human colon cancer and MCF-7 human breast cancer cell lines by alamarBlue® assay. For a better comparison, the well-studied bioconjugates GnRH-III–[^8Lys(Dau=Aoa)] (K1) and GnRH-III–[^4Lys(Bu), ^8Lys(Dau=Aoa)] (K2) were used as positive controls and internal standards. The corresponding IC50 values were calculated by using nonlinear regression (sigmoidal dose response) (Figure 3, Table 2). Unfortunately, the D-Trp containing compounds 3 and 6 started to precipitate in both cell culture media at higher concentrations limiting the concentration down to a maximum of 10 µM. This effect could not be prevented by using DMSO instead of ddH2O for the preparation of the stock solutions. Unfortunately, the lower concentration range with a maximum of 10 µM was not sufficient to achieve the dose-response. […] Nevertheless, the replacement of ^6Asp by D-Asp, D-Glu or D-Trp led to a decreased cytostatic effect on the estimated cancer cell lines.
(§2) MCF-7 human breast adenocarcinoma cells were cultured in Dulbecco’s Modified Eagle Medium (DMEM, Lonza, Basel, Switzerland), supplemented with 10% (v/v) fetal bovine serum (FBS, Lonza), L-glutamine (2 mM, Lonza), non-essential amino acids (NEAA, Sigma-Aldrich Kft), sodium pyruvate (1 mM, Lonza) and penicillin-streptomycine (Lonza). […]
(§3) Cells were seeded to 96-well plates (Sarstedt, Nümbrecht, Germany, 5 × 10^3 cells/well) one day prior to the treatment in complete cell medium. […] Fluorescence was detected using Synergy H4 multi-mode microplate reader (BioTek, Winooski, VT, USA), excitation and emission wavelengths were set to 570 and 620 nm, respectively. Cytostasis was measured using 4 parallels, each experiment was repeated twice. Cytostatic effect (and IC50 values) were calculated by using nonlinear regression (sigmoidal dose response) with Origin Pro8 (OriginLab Corp., Northampton, MA, USA.).

In data set [2] the test system is HT-29 human colon cancer cell line. Kind of data set: In vitro cytostatic effect, alamarBlue assay, HT-29. Format: cell-based. Particulars: HT-29, 10 µM.
Excerpt: as §1, §2, §3

A short description of data set [3]: Degradation in rat liver lysosomal homogenate (LC-MS). Format: in vitro ADME. The following applies: rat liver lysosomal homogenate, 37 °C, pH 5. The protocol:
In order to gain insight into the cellular release of the drug, the degradation of the Dau–GnRH-III derivatives 1–6, K1 and K2 was determined in the presence of rat liver lysosomal homogenate at 37 °C. […] However, the degradation level and the cleavage sites within the GnRH-III sequence differ considerably depending on the incorporated amino acids, whereby the hydrolyses of the C-terminus (H-Gly-NH2 and H-Pro-Gly-NH2) occurred first in all eight GnRH-III derivatives. Due to the high chemical and enzymatic stability of the oxime bond, no free Dau was detected by LC–MS. In accordance with our previous results, the digestion of the two peptides containing L-Asp in position 6 (K1, K2) provided the smallest Dau-containing metabolite (H-Lys(Dau=Aoa)-OH, m/z 729.36 [M + H]^+). This metabolite could already be detected after 1 hour of incubation in case of K2 and after 2 hours in case of K1. […] It might be assumed that D-Trp of GnRH-III–[^4Lys(Bu), ^6D-Tpr, ^8Lys(Dau=Aoa)] (6) is also accepted at the cleavage site, but due to the prior hydrolysis of the ^7Trp-^8Lys(Dau=Aoa)-bond an evidential fragment has not been detected. A reason for these diversities might be the subsite specificities of the lysosomal proteases. For instance, lysosomal cysteine proteases also known as cathepsins show a broad substrate specificity. […] For instance, the analyzed fragments of the ^6L-Asp derivatives gave clear hints for the presence of endopeptidases, while the digestion of the ^6D-Aaa compounds 1–3 gave only fragments which evidence the activity of exomono- and/or dipeptidases. Moreover, the obtained results for the bioconjugates that contain ^4Lys(Bu) (K2, 4–6) instead of serine indicate a proteolytic cleavage by lysosomal endopeptidases, which might be of great importance for the release of the smallest Dau-containing metabolite.
The rat liver lysosomal homogenate was prepared as previously described. The protein concentration was determined by Qubit Protein Assay Kit according to the manufacturer’s protocol (ThermoFisher Scientific, Waltham, MA, USA). The bioconjugates were dissolved in ddH2O to a concentration of 5 µg/µL. The reaction was carried out in 0.2 M NaOAc buffer (pH 5), with an identical concentration of bioconjugate and rat liver lysosomal homogenate (0.25 µg/µL). The reaction mixtures were incubated at 37 °C and aliquots of 15 µL were taken at 5 min, 1 h, 2 h, 4 h, 8 h and 24 h and quenched with 2 µL of acetic acid. The analysis of the samples was performed by LC–MS.

On the set-up of data set [4]: method as in PMID 20953647, PMID 21668011. Particulars: 90% human serum, 37 °C; ref [26],[38]; cited from earlier work.
For another data set, the system named is trypsin. On the set-up: method as in PMID 20953647, PMID 21668011. Particulars: 37 °C; ref [26],[38]; cited from earlier work.
The target in data set [5] is T1, GnRH-RI (Homo sapiens, UniProt P30968).
T1 sequence (P30968 1-328): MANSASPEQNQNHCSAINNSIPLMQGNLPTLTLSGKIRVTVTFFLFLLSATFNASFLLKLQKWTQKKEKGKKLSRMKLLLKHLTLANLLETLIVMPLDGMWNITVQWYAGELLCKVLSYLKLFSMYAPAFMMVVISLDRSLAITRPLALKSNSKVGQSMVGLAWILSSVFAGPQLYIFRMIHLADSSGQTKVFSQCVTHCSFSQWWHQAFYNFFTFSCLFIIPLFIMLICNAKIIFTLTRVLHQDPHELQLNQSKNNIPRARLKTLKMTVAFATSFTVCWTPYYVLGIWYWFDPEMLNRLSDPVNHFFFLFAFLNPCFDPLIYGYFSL
On the set-up: method as in PMID 22967796, PMID 25908176. Particulars: human pituitary tissue; ref [29],[50]; read-out: IC50 pituitary (reported values); cited from earlier work.

Data set [6] has as its target T1, GnRH-RI. On the set-up: human prostate cancer cells were obtained from a patient at the time of initial surgical treatment; from tissue; host or cells: human prostate cancer specimen from a patient (surgery); membrane homogenate; method as in PMID 22967796, PMID 25908176. The following applies: human prostate cancer tissue; ref [29],[50]; read-out: IC50 prostate cancer (reported values); cited from earlier work.

The subject of the next data set is GnRH-receptor. On the set-up: method as in PMID 10647698, PMID 20859992. The following applies: 1 pM to 1 µM; ref [51]–[52]; cited from earlier work.

Read-outs that look alike come from different tables or passages of the source. Non-standard residues stand in square brackets, D forms with d. Residues, ends and D or L forms follow the SMILES beside them. *: point of attachment. Daunorubicin(13-NOCH2CO) = COc1cccc2c1C(=O)c1c(O)c3c(c(O)c1C2=O)C[C@@](O)(C(C)=NOCC(=O)*)C[C@@H]3O[C@H]1C[C@H](N)[C@H](O)[C@H](C)O1; pGlu = O=C1CC[C@@H](C(=O)O)N1; Butyryl = CCCC(=O)*

On to `COc1cccc2c1C(=O)c1c(O)c3c(c(O)c1C2=O)C[C@@](O)(C(C)=NOCC(=O)NCCCC[C@H](NC(=O)[C@H](Cc1c[nH]c2ccccc12)NC(=O)[C@@H](Cc1c[nH]c2ccccc12)NC(=O)[C@H](Cc1c[nH]cn1)NC(=O)[C@H](CO)NC(=O)[C@H](Cc1c[nH]c2ccccc12)NC(=O)[C@H](Cc1c[nH]cn1)NC(=O)[C@@H]1CCC(=O)N1)C(=O)N1CCC[C@H]1C(=O)NCC(N)=O)C[C@@H]3O[C@H]1C[C@H](N)[C@H](O)[C@H](C)O1` [compound 3, [6D-Trp, 8Lys(Dau=Aoa)]] ([pGlu]HWSH[dW]WK(Daunorubicin(13-NOCH2CO))PG-NH2), for which the “cell viability at the highest concentration” value in data set [1] stood at 69%; in data set [2] it was 58%. The “incubation time after which the smallest Dau-containing metabolite H-Lys(Dau=Aoa)-OH was detected” value in data set [3] worked out at 4 h.
In the case of `CCCC(=O)NCCCC[C@H](NC(=O)[C@H](Cc1c[nH]c2ccccc12)NC(=O)[C@H](Cc1c[nH]cn1)NC(=O)[C@@H]1CCC(=O)N1)C(=O)N[C@@H](Cc1c[nH]cn1)C(=O)N[C@H](Cc1c[nH]c2ccccc12)C(=O)N[C@@H](Cc1c[nH]c2ccccc12)C(=O)N[C@@H](CCCCNC(=O)CON=C(C)[C@]1(O)Cc2c(O)c3c(c(O)c2[C@@H](O[C@H]2C[C@H](N)[C@H](O)[C@H](C)O2)C1)C(=O)c1c(OC)cccc1C3=O)C(=O)N1CCC[C@H]1C(=O)NCC(N)=O` [compound 6, GnRH-III–[^4Lys(Bu), ^6D-Tpr, ^8Lys(Dau=Aoa)]] ([pGlu]HWK(Butyryl)H[dW]WK(Daunorubicin(13-NOCH2CO))PG-NH2), the results for the “cell viability at the highest concentration” value in data set [1] and in data set [2] were 53% and 55%, respectively. Also, the “incubation time after which the smallest Dau-containing metabolite H-Lys(Dau=Aoa)-OH was detected” value in data set [3] was determined as 2 h.
GnRH-III–[^4Lys(Ac), ^8Lys(Dau=Aoa)]: the “time stable in human serum” value in data set [4] is given as “at least 24 h”. For the same compound, the “time stable in trypsin” value in the data set with trypsin was “at least 24 h”.
Take “GnRH-II–[D-Lys^6(Dau=Aoa)] (QHWSHKWYPG; N-terminal pyroglutamate (from Gln1); D-Lys at position 6, with daunorubicin oxime-linked through aminooxyacetyl on its epsilon-amine (Dau=Aoa); C-terminal amide; Decapeptide limits by convention (mat) [earlier reported daunorubicin–GnRH-II conjugate]”: the IC50 in the data set with GnRH-RI [5] was 4.2 nM; in the data set with GnRH-RI [6], 2.1 nM.
With bombesin, the “displacement of [125I]-triptorelin” value in the data set with GnRH-receptor is “could not inhibit the receptor binding”.
buserelin: the “displacement of [125I]-triptorelin” value with GnRH-receptor is “displaced [^125I]-triptorelin completely”.
For cetrorelix, the “displacement of [125I]-triptorelin” value in the data set with GnRH-receptor is “displaced [^125I]-triptorelin completely”.
In the case of somatostatin-14, the “displacement of [125I]-triptorelin” value with GnRH-receptor is given as “could not inhibit the receptor binding”.
